Measurements reported in US7834010B2, “Modulators of peripheral 5-HT receptors” (Serodus AS, priority 2003, dated 2010).
“And” between values parts separate entries of the source, which are not always exact repeats. Equal entries are not always repeated.

Key:
human 5-HT4(b) receptors [1] = target: T1, human 5-HT4(b) receptors (Homo sapiens, UniProt Q13639); test: Adenylyl cyclase assay in membranes of HEK293 cells stably expressing human 5-HT4(b) receptors; assay type: biochemical; details: for Kb: each line one individual measurement, read-out: Antagonist pKb value (individual measurements) (converted)
T1 construct: expressed in transfected cells; membranes prepared
T1 sequence (Q13639 whole entry): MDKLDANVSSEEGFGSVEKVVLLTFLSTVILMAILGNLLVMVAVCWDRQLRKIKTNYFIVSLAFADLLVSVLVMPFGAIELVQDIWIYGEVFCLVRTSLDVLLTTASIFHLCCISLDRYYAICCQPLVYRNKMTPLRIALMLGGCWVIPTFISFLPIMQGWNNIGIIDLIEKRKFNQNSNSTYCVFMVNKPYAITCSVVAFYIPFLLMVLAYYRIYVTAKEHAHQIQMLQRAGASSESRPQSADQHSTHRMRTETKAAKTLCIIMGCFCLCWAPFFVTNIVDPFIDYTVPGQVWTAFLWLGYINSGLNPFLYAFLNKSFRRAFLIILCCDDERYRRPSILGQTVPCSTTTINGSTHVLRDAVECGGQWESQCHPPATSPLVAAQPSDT
Description: (§1) Establishment of HEK293 Cell Lines Stably Expressing Human 5-HT4(b) Receptors
(§2) The development of HEK293 cell lines stably expressing human 5-HT4(b) receptors was described and published previously (Bach et al. 2001). Briefly, HEK293 cells (ATCC) were grown in Dulbecco's modified Eagle's medium with 10% fetal calf serum and penicillin (100 U/ml) and streptomycin (100 μg/ml). Cells were transfected with plasmid DNA (pcDNA3.1(−) containing human 5-HT4(b) receptor cDNA) using SuperFect Transfection Reagent (QIAGEN) according to the manufacturers protocol. Serial dilutions of transfected cells were plated in 96 well plates containing G418 (geneticin; Amersham) at 0.4 mg/ml, and isolated single colonies of cells transformed to the neomycin-resistant phenotype were expanded and tested for expression of serotonin receptors by measuring serotonin-stimulated adenylyl cyclase activity (Themmen et al. 1993). Transformed cells were always grown in the presence of G418 (0.4 mg/ml). For binding and adenylyl cyclase analysis, stable cell lines were grown and maintained in UltraCULTURE™ general purpose serum-free medium (BioWhittaker, Walkersville, Md., USA), supplemented with L-glutamine (2 mM), penicillin (100 U/ml) and streptomycin (100 μg/ml).
Membrane Preparation for Radioligand Binding and Adenylyl Cyclase Assay
Membranes were prepared from stably transfected HEK293 cells cultured on 150-mm cell culture dishes and grown to 80% confluence in serum-free medium (UltraCULTURE™, BioWhittaker) with penicillin (10 U/ml) and 2 mM L-Glutamine (BioWhittaker). Cells were washed twice with 10 ml ice-cold HBSS, scraped with a rubber policeman in 10 ml ice-cold HBSS and collected by centrifugation at 800 g for 5 min at 4° C. The cell pellet was resuspended in 1 ml/dish ice-cold STE buffer (27% (w/v) sucrose, 50 mM Tris-HCl, pH 7.5 at 20° C., 5 mM EDTA) and homogenized with an Ultra-Turrax (IKA) homogenizer, using five 10 s bursts with 30 s cooling in ice-water between bursts. To remove nuclei, the homogenate was centrifuged at 300 g for 5 min at 4° C. and the supernatant was further centrifuged at 17000 g for 20 min at 4° C. and the supernatant removed. The crude membrane pellet was resuspended with ten strokes of tight fitting pestle B in a Dounce glass-glass homogenizer in 1 ml/dish ice-cold TE (50 mM Tris-HCl, pH 7.5 at RT, 5 mM EDTA). This procedure was repeated twice and the resuspended membranes were finally aliquoted and flash frozen in liquid nitrogen and stored at −70° C. until use.
Adenylyl cyclase activity was measured by determining conversion of [α-^32P]ATP to [^32P]cAMP in membranes prepared in STE by homogenization of cells grown and washed as described above in a Dounce glass-glass homogenizer by 10 strokes with the tight-fitting pestle. Membranes were kept on ice prior to assay. Adenylyl cyclase activities were measured on 10-μl aliquots in a final volume of 50 μl in the presence of 0.1 mM [α-^32P]ATP (1-2×10^6 cpm/assay), 4 mM MgCl2, 20 μM GTP, 1 mM EDTA, 1 mM [^3H]cAMP (ca. 10,000 cpm/assay), 1 μM 3-isobutyl-1-methyl xanthine (IBMX; Sigma), a nucleoside triphosphate regenerating system consisting of 20 mM creatine phosphate (Sigma), 0.2 mg/ml creatine phosphokinase (Sigma) and 40 U/ml myokinase (Sigma) and additives described in the text and figures. When forskolin (Calbiochem, La Jolla, Calif., USA) was used the concentration was 100 μM. Incubations were for 20 min at 32EC. Cyclic AMP formed was quantified by the double column chromatography system of Salomon et al. (1974) as modified by Bockaert et al. (1976).
Binding and adenylyl cyclase data were analyzed by non-linear regression using Microsoft Excel with the Solver add-in, using the below equations.
Activation of adenylyl cyclase—The data were fit to the equation Y=a+(b−a)x/(c+x) where a is basal adenylyl cyclase activity, b is maximal adenylyl cyclase activity stimulated by the agonist, c is EC50, and x is the concentration of agonist.

human 5-HT4(b) receptors [2] = target: T1, human 5-HT4(b) receptors; test: Radioligand binding assay with [3H]GR113808 on membranes of HEK293 cells stably expressing human 5-HT4(b) receptors; details: competition with [3H]GR113808, HEK293 membranes, each line one individual measurement, read-out: Binding affinity (pKd value) (individual measurements) (converted)
Description: as §1, §2
Membrane Preparation for Radioligand Binding and Adenylyl Cyclase Assay […]
Binding assays were performed in 96-well, round-bottom microtiter plates with total reaction volumes of 50-200 μl, containing the indicated concentration of [^3H]GR113808 with or without competing unlabelled ligand in a binding buffer containing 50 mM Tris-HCl (pH 7.5 at RT), 1 mM EDTA, 5 mM EGTA, 2 mM MgCl2, 1 mM ascorbate, 0.1% BSA and 100 μM GTP. […] The filters were dried and counted at approximately […] efficiency in a Top-Count liquid scintillation counter (Packard), using 20 μl per filter well of Micro-Scint liquid scintillation cocktail (Packard).
Binding and adenylyl cyclase data were analyzed by non-linear regression using Microsoft Excel with the Solver add-in, using the below equations. […]

Row | Agonist/Antagonist properties (human 5-HT4(b) receptors [1]) | Kb (human 5-HT4(b) receptors [1]) | Kd (human 5-HT4(b) receptors [2]) | Structure (SMILES)
1 | Antagonist | 0.129 nM | 0.0282 nM and 0.0219 nM | CCCCN1CCC(COC(=O)c2c[nH]c3ccccc23)CC1 [DDL-6002]
2 | Antagonist | 0.132 nM and 0.17 nM | 0.0174 nM | CCCCN1CCC(CNC(=O)c2c3n(c4ccccc24)CCCO3)CC1 [SB207266]

Row | Structure (SMILES) | Agonist/Antagonist properties (human 5-HT4(b) receptors [1]) | Kb (human 5-HT4(b) receptors [1]) | Kd (human 5-HT4(b) receptors [2])
3 | Cn1cc(C(=O)OCC2CCN(CCNS(C)(=O)=O)CC2)c2ccccc21 [GR113808, 1-methyl-1H-indole-3-carboxylic acid, [1-[2-[(methylsulfonyl)amino]ethyl]-4-piperidinyl]methyl ester] | Antagonist | 0.105 nM and 0.135 nM and 0.17 nM and 0.224 nM and 0.151 nM and 0.178 nM | 0.115 nM and 0.049 nM and 0.0617 nM and 0.0195 nM
